Where two headings read alike, the source gives them in different places.
What was measured:
BTK [1] = molecular target: T1, BTK (Homo sapiens (Human), UniProt Q06187); assay: Btk kinase assay (HTRF); format: biochemical; details: [ATP]=80 μM, BTK=3.4 nM
Outline: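 HTRF read-out with enzyme, inhibitor, ATP and 1 μM peptide substrate in 50 mM Hepes pH 7.0, 0.02% NaN3, 0.01% BSA, 0.1 mM orthovanadate. Activity measured across compound concentrations against no-inhibitor controls, with no-enzyme wells as baseline.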
Target sequence in this assay (Q06187 whole entry, species assumed): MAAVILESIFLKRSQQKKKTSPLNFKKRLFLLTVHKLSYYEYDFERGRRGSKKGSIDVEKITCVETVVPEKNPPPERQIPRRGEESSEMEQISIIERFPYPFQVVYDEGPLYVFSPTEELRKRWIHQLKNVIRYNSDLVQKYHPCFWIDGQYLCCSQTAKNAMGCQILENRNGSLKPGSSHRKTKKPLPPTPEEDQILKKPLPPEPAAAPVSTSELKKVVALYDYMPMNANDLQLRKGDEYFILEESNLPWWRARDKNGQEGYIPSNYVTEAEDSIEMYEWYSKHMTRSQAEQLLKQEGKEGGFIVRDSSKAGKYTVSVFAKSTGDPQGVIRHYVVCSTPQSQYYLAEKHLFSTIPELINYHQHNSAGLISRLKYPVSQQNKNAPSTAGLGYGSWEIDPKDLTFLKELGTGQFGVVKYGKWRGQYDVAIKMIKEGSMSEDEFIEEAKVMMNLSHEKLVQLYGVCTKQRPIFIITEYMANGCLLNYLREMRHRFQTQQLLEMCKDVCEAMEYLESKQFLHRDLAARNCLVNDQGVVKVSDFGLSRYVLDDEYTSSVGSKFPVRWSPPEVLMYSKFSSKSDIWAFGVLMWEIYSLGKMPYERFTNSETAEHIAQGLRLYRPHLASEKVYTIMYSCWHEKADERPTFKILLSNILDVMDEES

Ramos cells = assay: Calcium flux assay, anti-IgM stimulated Ramos cells; format: cell-based; details: Ramos cells stimulated with goat anti-human IgM antibody 10 μg/ml; read-out: Ramos Ca Flux
Protocol: Calcium FluxAssay Calcium flux fluorescence-based assays were performed in […] (Hamamatsu Photonics) fluorometric imaging plate reader according to manufacturer instructions. […] Then 12.5 […] 2× dye loading solution (Fluo-4 NW Calcium Assay Kits, Invitrogen) was added per well of a 384-well plate. Afterwards, actively growing Ramos cells (ATCC) in RPM1640 medium supplemented with 10% FBS (Invitrogen) were washed and re-plated in assay buffer (from Fluo-4 NW Calcium Assay Kits, Invitrogen) to approximately 6.4×10^6/ml (80000 cells/12.5 μL in 384-well plates). The plates were incubated at 37° C. for 30 minutes, then at room temperature for an additional 30 minutes. The plates were now ready to be used in an experiment. Immediately after the transfer and a 10-s recording of baseline fluorescence, the compound treated cells were stimulated with a goat anti-human IgM antibody (10 μg/ml; Jackson Immuno Research) and read in a FDSS for 240 seconds. Difference between the signal and that at baseline, designated adjusted relative fluorescence unit, was calculated by using a custom Excel (Microsoft, Redmond, Wash.) template to determine IgM-induced calcium influx and its inhibition by compounds. The table belows show the result.

BTK [2] = molecular target: T1, BTK; assay: Btk occupancy in cellular assays (PCI-33380 labeling, Jeko-1 cells); format: cell-based; details: 1.5 h pre-incubation with compound, PCI-33380 5 μM 1 h
Protocol: Btk Occupancy in Cellular Assays
For PCI-33380 labeling of human B cells, 10^6 Jeko-1 cells were pre-incubated with compound for 1.5 h before labeling. Then cells were treated with PCI-33380 at 5 μM for 1 h. Washed, lysed in Ripa buffer containing sample reducing agent, and analyzed by SDS/PAGE and fluorescent gel scanning using a Typhoon scanner 9500 (GE Healthcare) (Ex, 532 nm; Em, 555 nm). The gel was then blotted and total Btk levels detected by standard Western blot with Btk antibody (CST).
Target sequence in this assay (Q06187 whole entry): as the sequence (Q06187 whole entry, species assumed) above

BLK = BLK (Homo sapiens (Human), UniProt P51451); assay: BLK kinase assay (HTRF); format: biochemical; details: [ATP]=20 μM, BLK=0.6 nM
Protocol: (§1) Btk Kinase Assay and Other Kinases Assay Btk kinase activity was determined using a homogenous time resolved fluorescence (HTRF) methodology. Measurements were performed in a reaction volume of 15 μL using 384-well assay plates. Kinase enzyme, inhibitor, ATP and 1 μM peptide substrate were incubated in a reaction buffer compose of Hepes 50 mM (pH7.0), NaN3 0.02%, BSA 0.01%, Orthocanadate 0.1 mM. After one hour, the kinase reaction was quenched by the addition of […] antibody and XL-665 in 1×Detection buffer containing 60 mM EDTA (Cisbio), and the mixture was allowed to incubate for one hour. The HTRF signal was measured on a multimode plate reader (EnVision® Multilabel Reader, Perkin Elmer) with an excitation wavelength (λEx) of 330 nm and detection wavelengths (λEm) of 615 and 665 nm. Activity was determined by the ratio of the fluorescence at 665 nm to that at 615 nm. For each compound, enzyme activity as measured at various concentrations of compound, Negative control reactions were performed in the absence of inhibitor in two replicates and eight no enzyme controls were used to determine baseline fluorescence levels. I[…] were obtained according to the equation: […] For LYN assay, [ATP]=20 μM, LYN=0.12 nM. For LCK assay, [ATP]=20 μM, LCK=0.2 nM. For BLK assay, [ATP]=20 μM, BLK=0.6 nM.

LYN = LYN (Homo sapiens (Human), UniProt P07948); assay: LYN kinase assay (HTRF); format: biochemical; details: [ATP]=20 μM, LYN=0.12 nM
Protocol: as §1

LCK = LCK (Homo sapiens (Human), UniProt P06239); assay: LCK kinase assay (HTRF); format: biochemical; details: [ATP]=20 μM, LCK=0.2 nM
Protocol: as §1

EGFR = EGFR (Homo sapiens (Human), UniProt P00533); assay: EGFR kinase assay; format: biochemical
Protocol: Btk Kinase Assay and Other Kinases Assay Btk kinase activity was determined using a homogenous time resolved fluorescence (HTRF) methodology. Measurements were performed in a reaction volume of 15 μL using 384-well assay plates. Kinase enzyme, inhibitor, ATP and 1 μM peptide substrate were incubated in a reaction buffer compose of Hepes 50 mM (pH7.0), NaN3 0.02%, BSA 0.01%, Orthocanadate 0.1 mM. After one hour, the kinase reaction was quenched by the addition of […] antibody and XL-665 in 1×Detection buffer containing 60 mM EDTA (Cisbio), and the mixture was allowed to incubate for one hour. The HTRF signal was measured on a multimode plate reader (EnVision® Multilabel Reader, Perkin Elmer) with an excitation wavelength (λEx) of 330 nm and detection wavelengths (λEm) of 615 and 665 nm. Activity was determined by the ratio of the fluorescence at 665 nm to that at 615 nm. For each compound, enzyme activity as measured at various concentrations of compound, Negative control reactions were performed in the absence of inhibitor in two replicates and eight no enzyme controls were used to determine baseline fluorescence levels. I[…] were obtained according to the equation: […]

Btk [3] = molecular target: Btk (Mus musculus (Mouse), UniProt P35991); assay: Btk occupancy in vivo (PBMCs or splenocytes, PCI-33380 labeling); details: after 4 hours, Babc/L mice
Protocol: For analysis of Btk occupancy in Babc/L mice following oral dosing of compounds after 4 hours. Isolating peripheral blood mononuclear cells (PBMCs) with mouse peripheral blood separation kit (Hao Yang Biological Manufacture CO., LTD, Tianjin) were collected from Babc/L mice (1 ml blood from two mice). Spleens were processed to splenocytes followed by 5 min incubation in red blood cell lysing buffer (from mouse peripheral blood separation kit). PBMCs or splenocytes were then PCI-33380-labeled and lysates analyzed by fluorescent gel scanning as described in cellular assays.

Sequence of Btk (P35991 whole entry): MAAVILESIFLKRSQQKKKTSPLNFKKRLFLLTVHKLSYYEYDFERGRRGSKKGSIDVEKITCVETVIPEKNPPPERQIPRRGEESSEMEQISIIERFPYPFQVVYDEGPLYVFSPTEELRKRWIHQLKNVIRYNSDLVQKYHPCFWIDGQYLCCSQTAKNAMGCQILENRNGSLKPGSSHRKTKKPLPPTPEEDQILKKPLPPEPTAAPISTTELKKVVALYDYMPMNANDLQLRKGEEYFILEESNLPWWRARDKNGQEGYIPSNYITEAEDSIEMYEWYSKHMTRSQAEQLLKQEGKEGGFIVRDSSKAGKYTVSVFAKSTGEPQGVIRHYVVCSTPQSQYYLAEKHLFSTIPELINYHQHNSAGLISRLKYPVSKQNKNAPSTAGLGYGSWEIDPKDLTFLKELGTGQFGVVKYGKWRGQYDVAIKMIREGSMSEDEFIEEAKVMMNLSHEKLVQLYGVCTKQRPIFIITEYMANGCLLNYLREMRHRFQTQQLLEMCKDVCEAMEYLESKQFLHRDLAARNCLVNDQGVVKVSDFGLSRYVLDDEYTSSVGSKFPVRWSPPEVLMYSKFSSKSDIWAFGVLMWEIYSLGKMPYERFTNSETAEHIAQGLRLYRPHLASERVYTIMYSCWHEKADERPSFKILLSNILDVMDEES
Sequence of BLK (P51451 whole entry, species assumed): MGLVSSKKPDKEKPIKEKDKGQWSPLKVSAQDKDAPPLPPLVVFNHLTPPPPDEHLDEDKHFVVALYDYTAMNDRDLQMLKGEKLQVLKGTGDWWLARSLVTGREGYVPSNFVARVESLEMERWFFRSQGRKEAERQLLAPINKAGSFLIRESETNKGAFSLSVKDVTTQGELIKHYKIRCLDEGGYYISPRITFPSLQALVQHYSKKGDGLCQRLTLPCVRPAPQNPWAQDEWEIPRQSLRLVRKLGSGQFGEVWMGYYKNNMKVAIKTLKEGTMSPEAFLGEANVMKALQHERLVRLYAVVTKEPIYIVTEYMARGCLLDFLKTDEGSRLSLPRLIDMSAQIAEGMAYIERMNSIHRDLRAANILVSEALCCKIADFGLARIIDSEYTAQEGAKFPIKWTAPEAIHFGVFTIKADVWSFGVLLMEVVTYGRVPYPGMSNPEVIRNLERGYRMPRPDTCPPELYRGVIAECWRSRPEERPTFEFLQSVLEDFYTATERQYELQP
Sequence of EGFR (P00533 25-1210, species assumed): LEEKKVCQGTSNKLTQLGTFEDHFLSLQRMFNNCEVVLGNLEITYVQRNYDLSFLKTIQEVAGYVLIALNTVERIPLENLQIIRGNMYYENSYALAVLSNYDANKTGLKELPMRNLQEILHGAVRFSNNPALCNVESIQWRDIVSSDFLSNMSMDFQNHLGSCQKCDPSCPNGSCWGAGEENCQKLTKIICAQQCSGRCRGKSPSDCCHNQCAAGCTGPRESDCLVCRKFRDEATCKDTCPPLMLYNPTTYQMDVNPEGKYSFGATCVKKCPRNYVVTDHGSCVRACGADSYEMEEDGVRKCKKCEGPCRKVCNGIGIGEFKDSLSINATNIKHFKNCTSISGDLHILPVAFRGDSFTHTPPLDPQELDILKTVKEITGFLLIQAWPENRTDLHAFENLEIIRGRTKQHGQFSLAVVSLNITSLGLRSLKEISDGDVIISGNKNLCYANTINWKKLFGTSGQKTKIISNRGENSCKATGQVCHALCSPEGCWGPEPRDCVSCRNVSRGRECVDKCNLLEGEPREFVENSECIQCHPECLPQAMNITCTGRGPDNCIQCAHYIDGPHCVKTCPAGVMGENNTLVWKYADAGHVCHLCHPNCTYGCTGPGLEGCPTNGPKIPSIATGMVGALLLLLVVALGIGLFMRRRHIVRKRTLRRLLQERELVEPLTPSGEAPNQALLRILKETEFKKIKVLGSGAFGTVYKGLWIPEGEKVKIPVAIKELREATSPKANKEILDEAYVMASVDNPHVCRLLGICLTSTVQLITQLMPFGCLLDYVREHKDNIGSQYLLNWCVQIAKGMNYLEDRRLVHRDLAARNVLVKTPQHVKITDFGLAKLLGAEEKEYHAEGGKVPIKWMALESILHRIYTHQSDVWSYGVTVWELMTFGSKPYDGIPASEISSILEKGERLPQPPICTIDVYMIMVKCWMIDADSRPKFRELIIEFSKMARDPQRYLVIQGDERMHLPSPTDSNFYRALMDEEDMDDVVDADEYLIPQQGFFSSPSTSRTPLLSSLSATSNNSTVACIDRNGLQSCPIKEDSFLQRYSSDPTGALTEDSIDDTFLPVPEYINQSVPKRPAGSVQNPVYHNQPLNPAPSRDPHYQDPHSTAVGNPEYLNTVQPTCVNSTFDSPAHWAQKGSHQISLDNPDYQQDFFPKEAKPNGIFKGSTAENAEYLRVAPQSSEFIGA
Sequence of LCK (P06239 whole entry, species assumed): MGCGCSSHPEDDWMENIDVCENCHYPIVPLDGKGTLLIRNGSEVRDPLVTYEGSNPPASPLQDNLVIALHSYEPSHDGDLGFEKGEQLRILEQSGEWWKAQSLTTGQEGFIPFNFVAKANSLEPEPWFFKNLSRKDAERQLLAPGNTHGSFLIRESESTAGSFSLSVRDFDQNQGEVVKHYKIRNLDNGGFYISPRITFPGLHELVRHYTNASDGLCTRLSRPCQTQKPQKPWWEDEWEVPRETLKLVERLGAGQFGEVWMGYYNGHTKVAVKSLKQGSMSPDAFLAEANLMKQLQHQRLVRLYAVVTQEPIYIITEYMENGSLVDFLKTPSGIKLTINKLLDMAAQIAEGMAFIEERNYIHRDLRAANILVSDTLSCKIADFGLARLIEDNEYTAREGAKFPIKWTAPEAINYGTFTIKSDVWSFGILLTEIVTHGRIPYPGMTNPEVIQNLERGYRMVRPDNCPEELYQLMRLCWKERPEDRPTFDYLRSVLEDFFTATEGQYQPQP
Sequence of LYN (P07948 whole entry, species assumed): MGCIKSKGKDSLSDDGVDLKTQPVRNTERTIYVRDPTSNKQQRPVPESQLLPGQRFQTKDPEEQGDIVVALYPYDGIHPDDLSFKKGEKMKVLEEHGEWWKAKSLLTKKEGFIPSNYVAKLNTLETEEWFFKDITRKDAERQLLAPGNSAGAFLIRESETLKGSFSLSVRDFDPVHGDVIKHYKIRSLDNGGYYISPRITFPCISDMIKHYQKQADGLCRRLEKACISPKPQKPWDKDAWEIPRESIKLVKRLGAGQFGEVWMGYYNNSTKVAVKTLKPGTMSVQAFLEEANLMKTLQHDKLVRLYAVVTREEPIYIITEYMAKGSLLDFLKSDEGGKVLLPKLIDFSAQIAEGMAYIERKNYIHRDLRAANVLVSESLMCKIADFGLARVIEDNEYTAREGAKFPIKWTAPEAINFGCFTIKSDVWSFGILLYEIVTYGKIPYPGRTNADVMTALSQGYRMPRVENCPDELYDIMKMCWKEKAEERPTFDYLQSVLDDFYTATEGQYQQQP

Compound | IC50 (BTK [1]; read-out: BTK Inhibition) | IC50 (Ramos cells) | concentration sufficient to fully occupy the active site of Btk (BTK [2]) | IC50 (BTK [1]; read-out: BTK IC50) | IC50 (BLK) | IC50 (LYN) | IC50 (LCK) | IC50 (EGFR) | Btk occupancy in vivo (Btk [3]; 10 mg/kg single oral dose) | Btk occupancy in vivo (Btk [3]; 5 mg/kg single oral dose)
C=CC(=O)N1CCC[C@@H](n2nc3ccncc3c2-c2ccc(Oc3cccc(Cl)c3Cl)cc2)C1 [Compound 43, (R)-1-(3-(3-(4-(2,3-dichlorophenoxy)phenyl)-2H-pyrazolo[4,3-c]pyridin-2-yl)piperidin-1-yl)prop-2-en-1-one] | < 10 nM | 10 to 100 nM | 100 nM |  |  |  |  |  |  | 
C=CC(=O)N1CC[C@@H](n2nc(-c3ccc(Oc4ccccc4)cc3)c3cnccc32)C1 [Compound 1, (R)-1-(3-(3-(4-phenoxyphenyl)-1H-pyrazolo[4,3-c]pyridin-1-yl)pyrrolidin-1-yl)prop-2-en-1-one] | < 10 nM |  |  | < 10 nM | < 10 nM | ≤ 10000 nM | 1000 to 10000 nM | 100 to 1000 nM |  | 
C=CC(=O)N1CC[C@@H](n2nc(-c3ccc(Oc4cccc(F)c4Cl)cc3)c3cnccc32)C1 [Compound 4, (R)-1-(3-(3-(4-(2-chloro-3-fluorophenoxy)phenyl)-1H-pyrazolo[4,3-c]pyridin-1-yl)pyrrolidin-1-yl)prop-2-en-1-one] | < 10 nM |  | 100 nM |  |  |  |  |  | full occupancy | 
C=CC(=O)N1CC[C@@H](n2nc(-c3ccc(Oc4cccc(OC)c4F)cc3)c3cnccc32)C1 [Compound 3, (R)-1-(3-(3-(4-(2-fluoro-3-methoxyphenoxy)phenyl)-1H-pyrazolo[4,3-c]pyridin-1-yl)pyrrolidin-1-yl)prop-2-en-1-one] | < 10 nM |  | 50 nM |  |  |  |  |  | full occupancy | 
C=CC(=O)N1CCCC1Cn1nc(-c2ccc(Oc3cccc(OC)c3F)cc2)c2cncc(OC)c21 (centres unmarked) [Compound 91, 1-(2-((3-(4-(2-fluoro-3-methoxyphenoxy)phenyl)-7-methoxy-1H-pyrazolo[4,3-c]pyridin-1-yl)methyl)pyrrolidin-1-yl)prop-2-en-1-one] | < 10 nM |  |  |  |  |  |  |  |  | full occupancy
C=CC(=O)N1CCC[C@@H](n2nc(-c3ccc(Oc4cccc(OC)c4F)cc3)c3cncc(OCC)c32)C1 [Compound 73, (R)-1-(3-(7-ethoxy-3-(4-(2-fluoro-3-methoxyphenoxy)phenyl)-1H-pyrazolo[4,3-c]pyridin-1-yl)piperidin-1-yl)prop-2-en-1-one] | < 10 nM |  | 100 nM |  |  |  |  |  |  | full occupancy
C=CC(=O)N1CCC[C@@H](n2nc(-c3ccc(Oc4cccc(OC)c4F)cc3)c3cnccc32)C1 [Compound 71, (R)-1-(3-(3-(4-(2-fluoro-3-methoxyphenoxy)phenyl)-1H-pyrazolo[4,3-c]pyridin-1-yl)piperidin-1-yl)prop-2-en-1-one] | < 10 nM |  | 100 nM |  |  |  |  |  | full occupancy | 
C=CC(=O)N1CCC[C@@H](n2nc(-c3ccc(Oc4cccc(OC)c4F)cc3)c3cncc(OC)c32)C1 [Compound 6, (R)-1-(3-(3-(4-(2-fluoro-3-methoxyphenoxy)phenyl)-7-methoxy-1H-pyrazolo[4,3-c]pyridin-1-yl)piperidin-1-yl)prop-2-en-1-one] | < 10 nM |  |  | < 10 nM | 10 to 100 nM | 1000 to 10000 nM | 1000 to 10000 nM | 100 to 1000 nM |  | 
C=CC(=O)N1CCC[C@@H](n2nc(-c3ccc(Oc4cccc(F)c4F)cc3)c3cnccc32)C1 [Compound 17, (R)-1-(3-(3-(4-(2,3-difluorophenoxy)phenyl)-1H-pyrazolo[4,3-c]pyridin-1-yl)piperidin-1-yl)prop-2-en-1-one] | < 10 nM | 10 to 100 nM | 100 nM |  |  |  |  |  |  | 
C=CC(=O)N1CCC[C@@H](n2nc(-c3ccc(Oc4cccc(OC)c4Cl)cc3)c3cnccc32)C1 [Compound 2, (R)-1-(3-(3-(4-(2-chloro-3-methoxyphenoxy)phenyl)-1H-pyrazolo[4,3-c]pyridin-1-yl)piperidin-1-yl)prop-2-en-1-one] | < 10 nM |  | 100 nM |  |  |  |  |  | full occupancy | 

Reference: patent US10662187B2, “Bruton's tyrosine kinase inhibitors” (Zibo Biopolar Changsheng Pharmaceutical Co. Ltd., priority 2016, dated 2020)
